Experimental findings from US6579967B1, “Receptor-selective somatostatin analogs” (The Salk Institute for Biological Studies, priority 1999, dated 2003) are described below.

Holding throughout (type): binding
Assay [1] concerns the target T1, human SSTR3 (Homo sapiens, UniProt P32745).
T1 construct: expressed in transfected cells; host or cells: CHO-K1 cells and CCL39 cells
As to the kind of experiment: Displacement of 125I-[Leu8,D-Trp22,Tyr25]-somatostatin-28 from cloned SSTR3 (receptor autoradiography on membrane pellets). The note with it: 125I-labelled Tyr2 analog tested as radioligand on cloned receptor. On the technique in general: In a radioligand displacement assay an active substance lowers the binding of a labelled ligand.

For assay [2], the target named is T2, human SSTR5 (Homo sapiens, UniProt P35346).
T2 construct: expressed in transfected cells; host or cells: CHO-K1 cells and CCL39 cells
T2 sequence (P35346 whole entry): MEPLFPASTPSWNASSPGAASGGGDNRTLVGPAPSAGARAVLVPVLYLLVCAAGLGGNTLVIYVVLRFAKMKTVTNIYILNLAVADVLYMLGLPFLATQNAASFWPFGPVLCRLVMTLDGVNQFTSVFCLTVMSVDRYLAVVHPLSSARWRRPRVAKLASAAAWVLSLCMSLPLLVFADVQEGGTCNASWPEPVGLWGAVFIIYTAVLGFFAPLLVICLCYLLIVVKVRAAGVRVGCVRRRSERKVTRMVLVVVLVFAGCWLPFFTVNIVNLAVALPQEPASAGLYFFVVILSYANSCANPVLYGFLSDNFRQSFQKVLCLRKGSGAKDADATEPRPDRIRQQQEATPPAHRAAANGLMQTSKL
As to the kind of experiment: Displacement of 125I-[Leu8,D-Trp22,Tyr25]-somatostatin-28 from cloned SSTR5 (receptor autoradiography on membrane pellets). The note with it: 125I-labelled Tyr2 analog tested as radioligand on cloned receptor.

The target of assay [3] is T3, human SSTR4 (Homo sapiens, UniProt P31391).
T3 construct: expressed in transfected cells; host or cells: CHO-K1 cells and CCL39 cells
T3 sequence (P31391 whole entry): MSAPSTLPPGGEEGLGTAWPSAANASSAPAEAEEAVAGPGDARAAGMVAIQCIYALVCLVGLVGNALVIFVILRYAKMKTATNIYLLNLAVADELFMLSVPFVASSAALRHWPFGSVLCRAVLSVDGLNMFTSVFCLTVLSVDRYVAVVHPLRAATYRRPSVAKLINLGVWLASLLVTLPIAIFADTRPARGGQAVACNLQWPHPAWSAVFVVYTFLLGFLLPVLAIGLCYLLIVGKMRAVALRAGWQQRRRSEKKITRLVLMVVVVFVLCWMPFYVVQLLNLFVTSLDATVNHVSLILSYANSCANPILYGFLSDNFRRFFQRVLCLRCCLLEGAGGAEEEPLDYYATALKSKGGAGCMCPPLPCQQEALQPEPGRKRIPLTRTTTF
The experiment in a line: Displacement of 125I-[Leu8,D-Trp22,Tyr25]-somatostatin-28 from cloned SSTR4 (receptor autoradiography on membrane pellets). The note with it: for IC50: inhibition of 125I-[Leu8,D-Trp22,Tyr24]SRIF-28 binding, cloned receptor, read-out: IC50 (nM) mSSTR4. The procedure: (§1) Generally, recombinant cells expressing the receptor are washed and homogenized to prepare a crude protein homogenate in a suitable buffer, as known in the art. In a typical assay, an amount of protein from the cell homogenate is placed into a small volume of an appropriate assay buffer at an appropriate pH. Candidate substances, such as potential SRIF agonists and antagonists, are added to the admixture in convenient concentrations, and the interaction between the candidate substance and the receptor polypeptide is monitored.
(§2) Receptor binding assays are performed on cloned SRIF receptors as generally set forth in Raynor et al. supra. Using such assays, one can generate KD values which are indicative of the concentration of a ligand necessary to occupy one-half (50%) of the binding sites on a selected amount of a receptor or the like, or alternatively, competitive assays can generate IC50 values which are indicative of the concentration of a competitive ligand necessary to displace a saturation concentration of a target ligand being measured from 50% of binding sites.
(§3) In vitro Bioassay: The various somatostatin analogs are tested in vitro for their ability to bind to isolated cloned receptors expressed on CHO-K1 cells and CCL39 cells. CHO-K1 cells are grown in Ham's F-12 medium, and CCL39 cells are grown in Dulbecco's modified Eagle's medium/Ham's F-12(1:1) mix, supplemented with 10% fetal bovine serum, 100 U/ml penicillin and 100 μg/ml streptomycin, in humidified air containing 5% CO2 at 37° C.
(§4) Cells are washed twice with and scraped into ice-cold 0.05 M Tris-HCl (pH 7.4), collected by centrifugation, and homogenized using a rotor/stator slash system in the same buffer. After centrifugation at 120 g for 5 min. at 4° C., the supernatant is collected and centrifuged again at 48,000 g for 30 min. at 4° C. The resulting pellet is resuspended in ice-cold Tris buffer, transferred into a microfuge tube, and centrifuged at 20,000 g for 15 min. at 4° C. After withdrawal of the supernatant, the membrane pellet is stored at −80° C.
(§5) Receptor autoradiography is performed on 20 μm thick cryostat sections of the membrane pellets, mounted on microscope slides, and then stored at −20° C. […] […] Unlabeled somatostatin-28 is run in parallel using the same increasing concentrations, as a control. IC50 values are calculated after quantification of the data using a computer-assisted image processing system as known in this art.

Assay [4] concerns the target T4, human SSTR2 (Homo sapiens, UniProt P30874).
T4 construct: expressed in transfected cells; host or cells: CHO-K1 cells and CCL39 cells
The experiment in a line: Displacement of 125I-[Leu8,D-Trp22,Tyr25]-somatostatin-28 from cloned SSTR2 (receptor autoradiography on membrane pellets). The note with it: for IC50: inhibition of 125I-[Leu8,D-Trp22,Tyr24]SRIF-28 binding, cloned receptor, read-out: IC50 (nM) mSSTR2. How it is done: as §1, §2, §3, §4, §5

Assay [5] has as its target T2, human SSTR5. As to the kind of experiment: Displacement of 125I-[Leu8,D-Trp22,Tyr25]-somatostatin-28 from cloned SSTR5 (receptor autoradiography on membrane pellets). The note with it: for IC50: inhibition of 125I-[Leu8,D-Trp22,Tyr24]SRIF-28 binding, cloned receptor, read-out: IC50 (nM) mSSTR5. The procedure: as §1
as §2, with “sites. The peptide des-AA^1,2,4,5,12,13-[D-Agl^8(Me,2-naphthoyl)]SRIF inhibits the binding to SSTR3 of an iodinated SRIF-28 ligand that has strong affinity for all five receptors.” for “sites.”
as §3, §4
Receptor autoradiography is performed on 20 μm thick cryostat sections of the membrane pellets, mounted on microscope slides, and then stored at −20° C. For each of the tested compounds, complete displacement experiments are performed with the universal somatostatin ligand radioligand ^125I-[Leu^8,D-Trp^22,Tyr^25]-somatostatin-28 that binds with strong affinity to all five receptors. […] Unlabeled somatostatin-28 is run in parallel using the same increasing concentrations, as a control. IC50 values are calculated after quantification of the data using a computer-assisted image processing system as known in this art.
(§6) The potencies of certain SRIF analogs to inhibit radioligand binding of ^125I-[Leu^8,D-Trp^22,[…]]SRIF-28 to the various cloned SRIF receptors are shown in the following table wherein the IC50 values are given in nanomolar concentration.

For assay [6], the target named is T1, human SSTR3. The experiment in a line: Displacement of 125I-[Leu8,D-Trp22,Tyr25]-somatostatin-28 from cloned SSTR3 (receptor autoradiography on membrane pellets). The note with it: for relative potency at SSTR3 by comparison to SRIF-28: binding affinity relative to SRIF-28 (=1); for binding strength and selectivity for SSTR3, in words: qualitative statement. How it is done:
as §1
as §2, with “sites. The peptide des-AA^1,2,4,5,12,13-[D-Agl^8(Me,2-naphthoyl)]SRIF inhibits the binding to SSTR3 of an iodinated SRIF-28 ligand that has strong affinity for all five receptors.” for “sites.”
as §3, §4
Receptor autoradiography is performed on 20 μm thick cryostat sections of the membrane pellets, mounted on microscope slides, and then stored at −20° C. For each of the tested compounds, complete displacement experiments are performed with the universal somatostatin ligand radioligand ^125I-[Leu^8,D-Trp^22,Tyr^25]-somatostatin-28 that binds with strong affinity to all five receptors. Increasing concentrations of the unlabeled peptide are used ranging from 0.1-1000 nM. Unlabeled somatostatin-28 is run in parallel using the same increasing concentrations, as a control. IC50 values are calculated after quantification of the data using a computer-assisted image processing system as known in this art.
as §6

The target of assay [7] is T5, human SSTR1 (Homo sapiens, UniProt P30872).
T5 construct: expressed in transfected cells; host or cells: CHO-K1 cells and CCL39 cells
T5 sequence (P30872 whole entry): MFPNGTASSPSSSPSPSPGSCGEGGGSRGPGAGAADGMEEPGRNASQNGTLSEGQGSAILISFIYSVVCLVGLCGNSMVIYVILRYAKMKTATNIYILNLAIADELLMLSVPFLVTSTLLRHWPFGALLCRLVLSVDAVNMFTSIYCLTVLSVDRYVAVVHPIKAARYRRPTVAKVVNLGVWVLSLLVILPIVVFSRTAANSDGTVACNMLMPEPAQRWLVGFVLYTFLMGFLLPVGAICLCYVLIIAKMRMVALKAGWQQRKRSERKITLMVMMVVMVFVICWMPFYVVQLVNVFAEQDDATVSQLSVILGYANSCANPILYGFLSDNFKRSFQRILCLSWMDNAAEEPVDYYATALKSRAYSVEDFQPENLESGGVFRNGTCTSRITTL
As to the kind of experiment: Displacement of 125I-[Leu8,D-Trp22,Tyr25]-somatostatin-28 from cloned SSTR1 (receptor autoradiography on membrane pellets). The note with it: for IC50: inhibition of 125I-[Leu8,D-Trp22,Tyr24]SRIF-28 binding, cloned receptor, read-out: IC50 (nM) mSSTR1. How it is done:
as §1, §2, §3, §4, §5

[8] abbreviates: inhibition of 125I-[Leu8,D-Trp22,Tyr24]SRIF-28 binding, cloned receptor, read-out: IC50 (nM) mSSTR3.

Entries after “also recorded” stand apart in the source; their conditions may differ. Like-named read-outs stand apart in the source and are kept apart here.

T4 sequence (P30874 whole entry): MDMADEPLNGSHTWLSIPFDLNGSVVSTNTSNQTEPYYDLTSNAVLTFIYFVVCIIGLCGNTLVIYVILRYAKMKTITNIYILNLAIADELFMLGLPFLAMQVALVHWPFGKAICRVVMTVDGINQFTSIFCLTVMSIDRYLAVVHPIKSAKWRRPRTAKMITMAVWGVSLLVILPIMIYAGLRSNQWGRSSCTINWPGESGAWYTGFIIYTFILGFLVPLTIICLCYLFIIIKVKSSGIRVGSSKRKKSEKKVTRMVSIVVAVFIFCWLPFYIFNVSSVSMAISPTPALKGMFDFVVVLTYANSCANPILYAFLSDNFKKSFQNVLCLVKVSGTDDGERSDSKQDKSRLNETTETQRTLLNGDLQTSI
T1 sequence (P32745 whole entry): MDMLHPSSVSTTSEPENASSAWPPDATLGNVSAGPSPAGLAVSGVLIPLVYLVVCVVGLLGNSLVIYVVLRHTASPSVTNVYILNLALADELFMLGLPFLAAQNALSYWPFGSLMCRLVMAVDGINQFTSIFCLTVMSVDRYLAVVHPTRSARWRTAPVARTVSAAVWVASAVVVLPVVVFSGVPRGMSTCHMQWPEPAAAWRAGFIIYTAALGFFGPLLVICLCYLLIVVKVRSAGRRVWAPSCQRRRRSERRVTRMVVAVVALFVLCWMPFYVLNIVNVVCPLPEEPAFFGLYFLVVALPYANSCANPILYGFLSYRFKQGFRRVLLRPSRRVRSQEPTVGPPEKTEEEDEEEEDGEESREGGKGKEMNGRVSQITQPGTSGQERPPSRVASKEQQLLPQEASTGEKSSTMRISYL

Turning to “(cyclo)H-Tyr-Cys-Phe-Phe-D-Agl(Me,2Np)-Lys-Thr-Phe-Cys-OH [Peptide No. 4]”, the “binding of the radioiodinated analog to SSTR3” value in assay [1] is listed as “continues to bind strongly to SSTR3; also recorded: effectively binds to SSTR3 to about the same extent as Peptide No. 2B”. The “binding of the radioiodinated analog to SSTR5” value in assay [2] is “No specific binding”.
By IC50 is commonly meant the concentration at which inhibition is half-maximal. For the molecule `C[C@@H](O)[C@@H]1NC(=O)[C@H](CCCCN)NC(=O)[C@@H](N(C)C(=O)c2ccc3ccccc3c2)NC(=O)[C@H](Cc2ccc(O)cc2)NC(=O)[C@H](Cc2ccccc2)NC(=O)[C@@H](N)CSSC[C@@H](C(=O)O)NC(=O)[C@H](Cc2ccccc2)NC1=O` [Peptide No. 2, (cyclo)H-Cys-Phe-Tyr-D-Agl(Me,2Np)-Lys-Thr-Phe-Cys-OH], the IC50 in assay [3] is above 1000 nM; in assay [4], above 10000 nM; in assay [5], above 10000 nM; in assay [6] (setting [8]), 70 ± 18 nM; in assay [6] (iodinated SRIF-28 ligand, cloned human receptor, read-out: IC50 at cloned human SSTR3), around 70 nM; in assay [7] it was above 10000 nM. In addition, the “effect on binding of the SRIF-28 radioligand to human SSTR4” value in assay [3] (peptide at 100 nM) was “minimal effects”. In addition, the “effect on binding of the SRIF-28 radioligand to human SSTR2” value in assay [4] (peptide at 100 nM) is “minimal effects”. Besides, the “effect on binding of the SRIF-28 radioligand to human SSTR5” value in assay [5] (peptide at 100 nM) is given as “minimal effects”. Also, in assay [6], the “relative potency at SSTR3 by comparison to SRIF-28” value (shortened to “relative potency at SSTR3”) was “about 0.13”. Also, the “binding strength and selectivity for SSTR3, in words” value (“binding strength and selectivity” for short) in assay [6] is “selectively bound to SSTR3”; in assay [6] (listed as Peptide 2) it was “bind strongly and selectively to SSTR3”. Further, the “effect on binding of the SRIF-28 radioligand to human SSTR1” value in assay [7] (peptide at 100 nM) was “minimal effects”.
Take `C[C@@H](O)[C@@H]1NC(=O)[C@H](CCCCN)NC(=O)[C@@H](N(C)C(=O)c2ccc3ccccc3c2)NC(=O)[C@H](Cc2ccccc2)NC(=O)[C@H](Cc2ccccc2)NC(=O)[C@H](N)CSSC[C@@H](C(=O)O)NC(=O)[C@H](Cc2ccccc2)NC1=O` [Peptide No. 2D, (cyclo 3-14)H-D-Cys-Phe-Phe-D-Agl(Me,2Np)-Lys-Thr-Phe-Cys-OH]: the IC50 in assay [3] was above 10000 nM; in assay [4], above 10000 nM; in assay [5], above 1000 nM; in assay [6] (setting [8]), 115 ± 36 nM; in assay [7], above 10000 nM. The “relative potency at SSTR3” value in assay [6] is “about 0.08”. Also, the “binding strength and selectivity” value in assay [6] (listed as Peptide 2D) was “bind strongly and selectively to SSTR3; also recorded: slightly less selective”.
For `C[C@@H](O)[C@@H]1NC(=O)[C@H](CCCCN)NC(=O)[C@@H](N(C)C(=O)c2ccc3ccccc3c2)NC(=O)[C@H](Cc2ccc(O)cc2)NC(=O)[C@H](Cc2ccccc2)NC(=O)[C@H](NC(N)=O)CSSC[C@@H](C(=O)O)NC(=O)[C@H](Cc2ccccc2)NC1=O` [Peptide No. 2F, (cyclo 3-14)Cbm-D-Cys-Phe-Tyr-D-Agl(Me,2Np)-Lys-Thr-Phe-Cys-OH], the half-inhibitory concentration (IC50) was above 10000 nM in assay [3]; above 10000 nM in assay [4]; above 10000 nM in assay [5]; 6.7 ± 2.6 nM in assay [6] (setting [8]); above 10000 nM in assay [7]. In assay [6], the “relative potency at SSTR3” value was “about 1.4”. Also, the “binding strength and selectivity” value in assay [6] (listed as Peptide 2F) was “bind strongly and selectively to SSTR3; also recorded: binding strength essentially equal to that of SRIF-28”.
